Results reported in patent US12691112B2, “FGFR tyrosine kinase inhibitors for the treatment of urothelial carcinoma” (Janssen Pharmaceutica NV, priority 2019, dated 2026).
Like-named read-outs stand apart in the source and are kept apart here.

Test system: subjects with metastatic or surgically unresectable urothelial cancer
[1] = all-causality, 10 mg intermittent, n = 33
[2] = treatment-emergent, all-causality, 8 mg Continuous, Regimen 3 (n = 99)
[3] = treatment-related, 6 mg Continuous, Regimen 2 (n = 78)
[4] = treatment-related, 8 mg Continuous Erdafitinib, Regimen 3 (n = 99)
[5] = treatment-related, 10 mg Intermittent, Regimen 1 (n = 33)

## COc1cc(OC)cc(N(CCNC(C)C)c2ccc3ncc(-c4cnn(C)c4)nc3c2)c1 [erdafitinib, N-(3,5-dimethoxy-phenyl)-N′-(1-methylethyl)-N-[3-(1-methyl-1H-pyrazol-4-yl)quinoxalin-6-yl]ethane-1,2-diamine]
[1]
  Decreased appetite, grade ≥ 3: 1 no.
  Diarrhea, any grade: 14 no.
  Diarrhea, grade 1: 7 no.
  Diarrhea, grade 2: 6 no.
  Diarrhea, grade ≥ 3: 1 no.
  Dry eye, any grade: 3 no.
  Dry eye, grade 1: 2 no.
  Dry eye, grade 2: 1 no.
  Dry eye, grade ≥ 3: 0 no.
  Dry mouth, any grade: 16 no.
  Dry mouth, grade 1: 15 no.
  Dry mouth, grade 2: 1 no.
  Dry mouth, grade ≥ 3: 0 no.
  Dry skin, any grade: 9 no.
  Dry skin, grade 1: 8 no.
  Dry skin, grade 2: 1 no.
  Dry skin, grade ≥ 3: 0 no.
  Dysgeusia, any grade: 10 no.
  Dysgeusia, grade 1: 7 no.
  Dysgeusia, grade 2: 3 no.
  Dysgeusia, grade ≥ 3: 0 no.
  Dyspepsia, any grade: 3 no.
  Dyspepsia, grade 1: 2 no.
  Dyspepsia, grade 2: 1 no.
  Dyspepsia, grade ≥ 3: 0 no.
  Dyspnea, any grade: 8 no.
  Dyspnea, grade 1: 3 no.
  Dyspnea, grade 2: 2 no.
  Dyspnea, grade ≥ 3: 3 no.
  Fatigue, any grade: 6 no.
  Fatigue, grade 1: 4 no.
  Fatigue, grade 2: 2 no.
  Fatigue, grade ≥ 3: 0 no.
  Hand-foot syndrome, any grade: 2 no.
  Hand-foot syndrome, grade 1: 0 no.
  Hand-foot syndrome, grade 2: 2 no.
  Hand-foot syndrome, grade ≥ 3: 0 no.
  Hematuria, any grade: 3 no.
  Hematuria, grade 1: 1 no.
  Hematuria, grade 2: 2 no.
  Hematuria, grade ≥ 3: 0 no.
  Hyperphosphatemia, any grade: 16 no.
  Hyperphosphatemia, grade 1: 15 no.
  Hyperphosphatemia, grade 2: 1 no.
  Hyperphosphatemia, grade ≥ 3: 0 no.
  Hypomagnesemia, any grade: 2 no.
  Hypomagnesemia, grade 1: 2 no.
  Hypomagnesemia, grade 2: 0 no.
  Hypomagnesemia, grade ≥ 3: 0 no.
  Hyponatremia, any grade: 2 no.
  Hyponatremia, grade 1: 0 no.
  Hyponatremia, grade 2: 0 no.
  Hyponatremia, grade ≥ 3: 2 no.
  Insomnia, any grade: 3 no.
  Insomnia, grade 1: 0 no.
  Insomnia, grade 2: 3 no.
  Insomnia, grade ≥ 3: 0 no.
  Lacrimation increased, any grade: 6 no.
  Lacrimation increased, grade 1: 5 no.
  Lacrimation increased, grade 2: 1 no.
  Lacrimation increased, grade ≥ 3: 0 no.
  Nail dystrophy, any grade: 2 no.
  Nail dystrophy, grade 1: 2 no.
  Nail dystrophy, grade 2: 0 no.
  Nail dystrophy, grade ≥ 3: 0 no.
  Nausea, any grade: 5 no.
  Nausea, grade 1: 3 no.
  Nausea, grade 2: 2 no.
  Nausea, grade ≥ 3: 0 no.
  Onycholysis, any grade: 7 no.
  Onycholysis, grade 1: 3 no.
  Onycholysis, grade 2: 3 no.
  Onycholysis, grade ≥ 3: 1 no.
  Onychomadesis, any grade: 1 no.
  Onychomadesis, grade 1: 1 no.
  Onychomadesis, grade 2: 0 no.
  Onychomadesis, grade ≥ 3: 0 no.
  Oropharyngeal pain, any grade: 0 no.
  Oropharyngeal pain, grade 1: 0 no.
  Oropharyngeal pain, grade 2: 0 no.
  Oropharyngeal pain, grade ≥ 3: 0 no.
  Pain in extremity, any grade: 5 no.
  Pain in extremity, grade 1: 3 no.
  Pain in extremity, grade 2: 1 no.
  Pain in extremity, grade ≥ 3: 1 no.
  Paronychia, any grade: 2 no.
  Paronychia, grade 1: 0 no.
  Paronychia, grade 2: 2 no.
  Paronychia, grade ≥ 3: 0 no.
  Peripheral edema, any grade: 5 no.
  Peripheral edema, grade 1: 1 no.
  Peripheral edema, grade 2: 4 no.
  Peripheral edema, grade ≥ 3: 0 no.
  Pyrexia, any grade: 5 no.
  Pyrexia, grade 1: 5 no.
  Pyrexia, grade 2: 0 no.
  Pyrexia, grade ≥ 3: 0 no.
  Retinal detachment, any grade: 2 no.
  Retinal detachment, grade 1: 1 no.
  Retinal detachment, grade 2: 1 no.
  Retinal detachment, grade ≥ 3: 0 no.
  Stomatitis, any grade: 16 no.
  Stomatitis, grade 1: 9 no.
  Stomatitis, grade 2: 6 no.
  Stomatitis, grade ≥ 3: 1 no.
  Urinary tract infection, any grade: 4 no.
  Urinary tract infection, grade 1: 0 no.
  Urinary tract infection, grade 2: 2 no.
  Urinary tract infection, grade ≥ 3: 2 no.
  Vision blurred, any grade: 5 no.
  Vision blurred, grade 1: 4 no.
  Vision blurred, grade 2: 1 no.
  Vision blurred, grade ≥ 3: 0 no.
  Vomiting, any grade: 9 no.
  Vomiting, grade 1: 7 no.
  Vomiting, grade 2: 2 no.
  Vomiting, grade ≥ 3: 0 no.
  Weight decreased, any grade: 3 no.
  Weight decreased, grade 1: 1 no.
  Weight decreased, grade 2: 2 no.
  Weight decreased, grade ≥ 3: 0 no.
In vivo
  CSR leading to discontinuation: three patients
  discontinuation due to grade 1 hyperphosphatemia: One patient discontinued treatment
  normalization of phosphate elevation: normalized by cycle 5
  retinal vein or artery occlusion: no patient had retinal vein or artery occlusion
  time of peak phosphate elevation after erdafitinib initiation: 6 weeks
Myocardial infarction considered unrelated to treatment
  death as a result of an adverse event: One patient died as a result of an adverse event
Overall trial population
  patients with grade ≥3 treatment-emergent adverse events: 66%
Patients overall
  some type of eye disorder, regardless of relation to treatment: 54%
[2]
  Patients with Alopecia, Grade ≥3: 0 no.
  Patients with Decreased appetite, Grade ≥3: 0 no.
  Patients with Dry mouth, Grade ≥3: 0 no.
  Patients with Dry skin, Grade ≥3: 0 no.
  Patients with Urinary tract infection, Grade 1: 0 no.
  Patients with Vision blurred, Grade ≥3: 0 no.
[3]
  Patients with Alopecia, Any grade: 8 no.
  Patients with Alopecia, Grade 2: 0 no.
  Patients with Alopecia, Grade ≥3: 0 no.
  Patients with Conjunctivitis, Grade 2: 0 no.
  Patients with Conjunctivitis, Grade ≥3: 0 no.
  Patients with Diarrhea, Grade ≥3: 0 no.
  Patients with Dry skin, Grade ≥3: 0 no.
  Patients with Dysgeusia, Grade ≥3: 0 no.
  Patients with Hand-foot syndrome, Grade ≥3: 0 no.
  Patients with Hyperphosphatemia, Grade ≥3: 0 no.
  Patients with Lacrimation increased, Grade ≥3: 0 no.
  Patients with Nausea, Grade ≥3: 0 no.
  Patients with Onychomadesis, Grade ≥3: 0 no.
  Patients with Paronychia, Grade ≥3: 0 no.
  Patients with Retinal detachment, Grade ≥3: 0 no.
[4]
  Patients with Arrhythmia-related events, Any grade: 0 no.
  Patients with Arrhythmia-related events, Grade ≥3: 0 no.
[5]
  Patients with Alopecia, Grade ≥3: 0 no.
  Patients with Conjunctivitis, Grade ≥3: 0 no.
  Patients with Decreased appetite, Grade ≥3: 0 no.
  Patients with Diarrhea, Grade 2: 5 no.
  Patients with Dry mouth, Grade ≥3: 0 no.
  Patients with Dry skin, Grade ≥3: 0 no.
  Patients with Dysgeusia, Grade ≥3: 0 no.
  Patients with Fatigue, Grade ≥3: 0 no.
  Patients with Hand-foot syndrome, Grade 1: 0 no.
  Patients with Hand-foot syndrome, Grade ≥3: 0 no.
  Patients with Hyperphosphatemia, Grade ≥3: 0 no.
  Patients with Lacrimation increased, Grade 2: 0 no.
  Patients with Lacrimation increased, Grade ≥3: 0 no.
  Patients with Nausea, Grade ≥3: 0 no.
  Patients with Onychomadesis, Grade 2: 0 no.
  Patients with Onychomadesis, Grade ≥3: 0 no.
  Patients with Paronychia, Grade 1: 0 no.
  Patients with Paronychia, Grade ≥3: 0 no.
  Patients with Retinal detachment, Grade ≥3: 0 no.
  Patients with Vision blurred, Grade ≥3: 0 no.
